The values below come from patent US6734198B1, “Nematicidal trifluorobutenes” (Nihon Bayer Agrochem K.K., priority 1999, dated 2004).

The test system of the experiment is Meloidogyne incognita. As to the kind of experiment: Test against Meloidogyne spp., soil pot test (tomato). Particulars: 10 ppm active ingredient in soil contaminated with Meloidogyne incognita; tomato (Kurihara) in pots, greenhouse, 4 weeks; from root knot index. Type of experiment: in vivo. The method, then:
Test Against Meloidogyne spp. Soil pot Test
Preparation of Test Agent:
1 Part of the active compound is impregnated to 99 parts of pumice to obtain fine granules.
The test agent prepared as mentioned above was added to soil contaminated with Meloidogyne incognita to a chemical concentration of 10 ppm and homogeneously mixed by stirring. A pot (1/5000 are) was filled with the soil. About 20 seeds of tomato (variety: Kurihara) were sown per pot. After cultivation in a greenhouse for 4 weeks, they were carefully pulled out not to damage the roots and the root knot index and the controlling effect were determined as follows.
Degree of damage 0: No knots were formed (Complete control).
1: A few knots were formed.
2: Knots were formed to a medium extent.
3: Knots were formed to an intense extent.
4: Knots were formed to the most intense extent (which corresponds to non-treatment). [formula]
The controlling effect of the compounds tested can then be evaluated according to the following equation: [formula]
The evaluation of the controlling effects of the compounds according to the present invention was done on the basis of the values of the controlling effect which can be obtained in the above-mentioned way and were connected with the following standards:
a: Controlling effect 100-71%
b: Controlling effect 70-50%
c: Controlling effect less than 50%
Turning to `FC(F)=C(F)CCSc1ncc(Cl)s1` [Example 1, 5-chloro-2-(3,4,4-trifluoro-3-butenylthio)thiazole], the “Evaluation of controlling effect” value is recorded as “a (Controlling effect 100-71%)”.

For `[O-][S+](CCC(F)=C(F)F)c1ncc(Cl)s1` (stereo not drawn) [Example 2, 5-chloro-2-(3,4,4-trifluoro-3-butenylsulfinyl)thiazole], the “Evaluation of controlling effect” value was “a (Controlling effect 100-71%)”.

Turning to `O=S(=O)(CCC(F)=C(F)F)c1ncc(Cl)s1` [Example 3, 5-chloro-2-(3,4,4-trifluoro-3-butenylsulfonyl)thiazole], the “Evaluation of controlling effect” value is listed as “a (Controlling effect 100-71%)”.
